The NIST ThermoML archive (doi:10.1021/acs.jced.8b00349)
± gives the expanded uncertainty stated by the source.

Experiment: mn = molality of the nth substance listed, in mol/kg
Details: 101 kPa, Liquid; for viscosity: Falling or rolling sphere viscometry; for speed of sound: Frequency=3 MHz, Single path-length method; for mass density: Vibrating tube method

C[n+]1ccn(CCCCCn2cc[n+](C)c2)c1.[Br-].[Br-] + O
Details | mass density [kg/m3] | speed of sound [m/s] | viscosity [mPa·s]
293.15 K, m1 = 0.03341 | 1002.35 ± 0.11 | 1488.3 ± 1 | 1.021 ± 0.021
293.15 K, m1 = 0.04614 | 1003.89 ± 0.11 | 1490.3 ± 1 | 1.027 ± 0.021
293.15 K, m1 = 0.05646 | 1005.11 ± 0.11 | 1491.6 ± 1 | 1.032 ± 0.021
293.15 K, m1 = 0.06717 | 1006.38 ± 0.11 | 1493.3 ± 1 | 1.037 ± 0.021
293.15 K, m1 = 0.0777 | 1007.58 ± 0.11 | 1494.8 ± 1 | 1.042 ± 0.021
293.15 K, m1 = 0.08857 | 1008.85 ± 0.11 | 1496.4 ± 1 | 1.047 ± 0.021
293.15 K, m1 = 0.09671 | 1009.75 ± 0.11 | 1497.3 ± 1 | 1.05 ± 0.021
298.15 K, m1 = 0.03341 | 1001.16 ± 0.11 | 1501.9 ± 1 | 0.908 ± 0.021
298.15 K, m1 = 0.04614 | 1002.7 ± 0.11 | 1503.7 ± 1 | 0.914 ± 0.021
298.15 K, m1 = 0.05646 | 1003.91 ± 0.11 | 1505 ± 1 | 0.918 ± 0.021
298.15 K, m1 = 0.06717 | 1005.17 ± 0.11 | 1506.5 ± 1 | 0.924 ± 0.021
298.15 K, m1 = 0.0777 | 1006.38 ± 0.11 | 1507.8 ± 1 | 0.928 ± 0.021
298.15 K, m1 = 0.08857 | 1007.62 ± 0.11 | 1509.2 ± 1 | 0.933 ± 0.021
298.15 K, m1 = 0.09671 | 1008.51 ± 0.11 | 1510.2 ± 1 | 0.936 ± 0.021
303.15 K, m1 = 0.03341 | 999.742 ± 0.11 | 1514.4 ± 1 | 0.815 ± 0.021
303.15 K, m1 = 0.04614 | 1001.27 ± 0.11 | 1515.9 ± 1 | 0.821 ± 0.021
303.15 K, m1 = 0.05646 | 1002.47 ± 0.11 | 1517.1 ± 1 | 0.825 ± 0.021
303.15 K, m1 = 0.06717 | 1003.73 ± 0.11 | 1518.5 ± 1 | 0.83 ± 0.021
303.15 K, m1 = 0.0777 | 1004.93 ± 0.11 | 1519.8 ± 1 | 0.835 ± 0.021
303.15 K, m1 = 0.08857 | 1006.16 ± 0.11 | 1520.9 ± 1 | 0.839 ± 0.021
303.15 K, m1 = 0.09671 | 1007.05 ± 0.11 | 1521.8 ± 1 | 0.843 ± 0.021
308.15 K, m1 = 0.03341 | 998.108 ± 0.11 | 1523.7 ± 1 | 0.737 ± 0.021
308.15 K, m1 = 0.04614 | 999.627 ± 0.11 | 1525.1 ± 1 | 0.741 ± 0.021
308.15 K, m1 = 0.05646 | 1000.83 ± 0.11 | 1526.4 ± 1 | 0.747 ± 0.021
308.15 K, m1 = 0.06717 | 1002.07 ± 0.11 | 1527.4 ± 1 | 0.752 ± 0.021
308.15 K, m1 = 0.0777 | 1003.27 ± 0.11 | 1528.7 ± 1 | 0.757 ± 0.021
308.15 K, m1 = 0.08857 | 1004.5 ± 0.11 | 1529.9 ± 1 | 0.762 ± 0.021
308.15 K, m1 = 0.09671 | 1005.38 ± 0.11 | 1530.7 ± 1 | 0.766 ± 0.021
313.15 K, m1 = 0.03341 | 996.275 ± 0.11 | 1533.2 ± 1 | 0.67 ± 0.021
313.15 K, m1 = 0.04614 | 997.783 ± 0.11 | 1534.3 ± 1 | 0.676 ± 0.021
313.15 K, m1 = 0.05646 | 998.981 ± 0.11 | 1535.4 ± 1 | 0.681 ± 0.021
313.15 K, m1 = 0.06717 | 1000.22 ± 0.11 | 1536.5 ± 1 | 0.685 ± 0.021
313.15 K, m1 = 0.0777 | 1001.41 ± 0.11 | 1537.5 ± 1 | 0.689 ± 0.021
313.15 K, m1 = 0.08857 | 1002.64 ± 0.11 | 1538.6 ± 1 | 0.694 ± 0.021
313.15 K, m1 = 0.09671 | 1003.53 ± 0.11 | 1539.4 ± 1 | 0.697 ± 0.021

C[n+]1ccn(CCCCn2cc[n+](C)c2)c1.[Br-].[Br-] + O
Details | mass density [kg/m3] | speed of sound [m/s] | viscosity [mPa·s]
293.15 K, m1 = 0.04944 | 1004.66 ± 0.11 | 1489.8 ± 1 | 1.026 ± 0.021
293.15 K, m1 = 0.06711 | 1006.89 ± 0.11 | 1492 ± 1 | 1.034 ± 0.021
293.15 K, m1 = 0.07912 | 1008.4 ± 0.11 | 1493.5 ± 1 | 1.039 ± 0.021
293.15 K, m1 = 0.0927 | 1010.06 ± 0.11 | 1495.1 ± 1 | 1.044 ± 0.021
293.15 K, m1 = 0.1021 | 1011.22 ± 0.11 | 1496.2 ± 1 | 1.049 ± 0.021
298.15 K, m1 = 0.04944 | 1003.45 ± 0.11 | 1503.2 ± 1 | 0.914 ± 0.021
298.15 K, m1 = 0.06711 | 1005.68 ± 0.11 | 1505.2 ± 1 | 0.921 ± 0.021
298.15 K, m1 = 0.07912 | 1007.18 ± 0.11 | 1506.6 ± 1 | 0.926 ± 0.021
298.15 K, m1 = 0.0927 | 1008.82 ± 0.11 | 1508 ± 1 | 0.931 ± 0.021
298.15 K, m1 = 0.1021 | 1009.97 ± 0.11 | 1509 ± 1 | 0.935 ± 0.021
303.15 K, m1 = 0.04944 | 1002.01 ± 0.11 | 1515.4 ± 1 | 0.821 ± 0.021
303.15 K, m1 = 0.06711 | 1004.22 ± 0.11 | 1517.1 ± 1 | 0.828 ± 0.021
303.15 K, m1 = 0.07912 | 1005.71 ± 0.11 | 1518.5 ± 1 | 0.833 ± 0.021
303.15 K, m1 = 0.0927 | 1007.35 ± 0.11 | 1519.8 ± 1 | 0.839 ± 0.021
303.15 K, m1 = 0.1021 | 1008.49 ± 0.11 | 1520.7 ± 1 | 0.842 ± 0.021
308.15 K, m1 = 0.04944 | 1000.35 ± 0.11 | 1524.7 ± 1 | 0.744 ± 0.021
308.15 K, m1 = 0.06711 | 1002.54 ± 0.11 | 1526.3 ± 1 | 0.751 ± 0.021
308.15 K, m1 = 0.07912 | 1004.03 ± 0.11 | 1527.3 ± 1 | 0.756 ± 0.021
308.15 K, m1 = 0.0927 | 1005.67 ± 0.11 | 1528.9 ± 1 | 0.762 ± 0.021
308.15 K, m1 = 0.1021 | 1006.8 ± 0.11 | 1529.5 ± 1 | 0.765 ± 0.021
313.15 K, m1 = 0.04944 | 998.497 ± 0.11 | 1534.1 ± 1 | 0.677 ± 0.021
313.15 K, m1 = 0.06711 | 1000.68 ± 0.11 | 1535.5 ± 1 | 0.683 ± 0.021
313.15 K, m1 = 0.07912 | 1002.15 ± 0.11 | 1536.5 ± 1 | 0.688 ± 0.021
313.15 K, m1 = 0.0927 | 1003.79 ± 0.11 | 1537.8 ± 1 | 0.692 ± 0.021
313.15 K, m1 = 0.1021 | 1004.91 ± 0.11 | 1538.5 ± 1 | 0.696 ± 0.021

C[n+]1ccn(CCCn2cc[n+](C)c2)c1.[Br-].[Br-] [1,3-bis[3-methylimidazolium-1-yl]propane dibromide] + O
Details | mass density [kg/m3] | speed of sound [m/s] | viscosity [mPa·s]
293.15 K, m1 = 0.03423 | 1002.81 ± 0.11 | 1486.3 ± 1 | 1.019 ± 0.021
293.15 K, m1 = 0.04998 | 1004.86 ± 0.11 | 1488.1 ± 1 | 1.025 ± 0.021
293.15 K, m1 = 0.06131 | 1006.3 ± 0.11 | 1489.3 ± 1 | 1.029 ± 0.021
293.15 K, m1 = 0.07119 | 1007.55 ± 0.11 | 1490.3 ± 1 | 1.033 ± 0.021
293.15 K, m1 = 0.08049 | 1008.72 ± 0.11 | 1491.3 ± 1 | 1.037 ± 0.021
293.15 K, m1 = 0.089 | 1009.76 ± 0.11 | 1492.2 ± 1 | 1.04 ± 0.021
293.15 K, m1 = 0.09492 | 1010.48 ± 0.11 | 1492.8 ± 1 | 1.042 ± 0.021
298.15 K, m1 = 0.03423 | 1001.61 ± 0.11 | 1499.9 ± 1 | 0.906 ± 0.021
298.15 K, m1 = 0.04998 | 1003.65 ± 0.11 | 1501.6 ± 1 | 0.912 ± 0.021
298.15 K, m1 = 0.06131 | 1005.1 ± 0.11 | 1502.6 ± 1 | 0.917 ± 0.021
298.15 K, m1 = 0.07119 | 1006.34 ± 0.11 | 1503.5 ± 1 | 0.921 ± 0.021
298.15 K, m1 = 0.08049 | 1007.49 ± 0.11 | 1504.6 ± 1 | 0.924 ± 0.021
298.15 K, m1 = 0.089 | 1008.53 ± 0.11 | 1505.4 ± 1 | 0.927 ± 0.021
298.15 K, m1 = 0.09492 | 1009.24 ± 0.11 | 1505.8 ± 1 | 0.929 ± 0.021
303.15 K, m1 = 0.03423 | 1000.19 ± 0.11 | 1512.3 ± 1 | 0.814 ± 0.021
303.15 K, m1 = 0.04998 | 1002.22 ± 0.11 | 1513.9 ± 1 | 0.82 ± 0.021
303.15 K, m1 = 0.06131 | 1003.66 ± 0.11 | 1514.9 ± 1 | 0.824 ± 0.021
303.15 K, m1 = 0.07119 | 1004.89 ± 0.11 | 1515.8 ± 1 | 0.828 ± 0.021
303.15 K, m1 = 0.08049 | 1006.04 ± 0.11 | 1516.6 ± 1 | 0.831 ± 0.021
303.15 K, m1 = 0.089 | 1007.06 ± 0.11 | 1517.5 ± 1 | 0.835 ± 0.021
303.15 K, m1 = 0.09492 | 1007.78 ± 0.11 | 1518 ± 1 | 0.838 ± 0.021
308.15 K, m1 = 0.03423 | 998.558 ± 0.11 | 1521.8 ± 1 | 0.737 ± 0.021
308.15 K, m1 = 0.04998 | 1000.57 ± 0.11 | 1523.2 ± 1 | 0.743 ± 0.021
308.15 K, m1 = 0.06131 | 1002.01 ± 0.11 | 1524 ± 1 | 0.747 ± 0.021
308.15 K, m1 = 0.07119 | 1003.23 ± 0.11 | 1524.8 ± 1 | 0.751 ± 0.021
308.15 K, m1 = 0.08049 | 1004.38 ± 0.11 | 1525.7 ± 1 | 0.755 ± 0.021
308.15 K, m1 = 0.089 | 1005.39 ± 0.11 | 1526.4 ± 1 | 0.758 ± 0.021
308.15 K, m1 = 0.09492 | 1006.11 ± 0.11 | 1526.8 ± 1 | 0.76 ± 0.021
313.15 K, m1 = 0.03423 | 996.725 ± 0.11 | 1531.6 ± 1 | 0.675 ± 0.021
313.15 K, m1 = 0.04998 | 998.73 ± 0.11 | 1532.7 ± 1 | 0.679 ± 0.021
313.15 K, m1 = 0.06131 | 1000.15 ± 0.11 | 1533.5 ± 1 | 0.683 ± 0.021
313.15 K, m1 = 0.07119 | 1001.38 ± 0.11 | 1534.1 ± 1 | 0.689 ± 0.021
313.15 K, m1 = 0.08049 | 1002.51 ± 0.11 | 1534.8 ± 1 | 0.686 ± 0.021
313.15 K, m1 = 0.089 | 1003.53 ± 0.11 | 1535.5 ± 1 | 0.689 ± 0.021
313.15 K, m1 = 0.09492 | 1004.24 ± 0.11 | 1535.8 ± 1 | 0.691 ± 0.021
